# Data reported in US20060058376A1, “Composition having autonomic nerve modulating activity and method of use thereof” (SUNTORY LIMITED, priority 2003, published 2006).
# What was measured:
# Type in all cases: in vivo, human
# [1] = test system: activity of autonomic nerves; experiment: Heart rate variability power spectral analysis in women with symptoms of climacteric disorder, double-blind parallel comparison; details: 4 weeks, 3 soft capsules each containing 10 mg of sesamin; supine position; FIG. 3
# Method: For 14 women who display symptoms of climacteric disorder, a test was carried out by double-blind parallel between-groups comparison. The subjects were randomly divided into two groups. Over a period of 4 weeks, 3 soft capsules each containing 10 mg of sesamin were ingested consecutively for one of the groups, and 3 placebo capsules were ingested consecutively for the other group. Before and after the ingestion of the sample, electrocardiograms were taken in a supine position, and the activity of the autonomic nerves was examined by heart rate variability power spectral analysis.
# QT interval = QT interval (heart depolarization-repolarization time) after smoking; details: FIG. 2; 3 x 10 mg sesamin capsules; placebo group significant prolongation (p<0.01)
# Method: For nine male general university students, a test was carried out by a double blind, crossover study. Specifically, 3 soft capsules each containing 10 mg of sesamin and 3 placebo capsules were ingested, and the effect of the ingestion of the capsules on the activity of autonomic nerves was examined by a heart rate variability power spectrum method according to the method by Ue, H. et al. (Ue, H. et al., Ann. Noninvasive Electrocardiol., 5: 336-345 (2000)). After the ingestion of each sample, the students smoked one cigarette over a period of 4 min. Just before and after smoking, 10 min after smoking, and 30 min after smoking, electrocardiograms were taken, and sampling was carried out at 1024 Hz using 14-bit A/D conversion. Heart rate variability obtained from the electrocardiograms were processed by fast Fourier transform for frequency analysis to provide a heart rate variability power spectrum. In order to separate and quantify the heart rate variability spectrum, spectral integral values of two frequency bands (0.04 to 0.15 Hz and 0.15 to 0.4 Hz) are mainly determined. […] Further, the heart depolarization-repolarizaton time was measured by the QT interval.
# [2] = test system: activity of autonomic nerves; experiment: Heart rate variability power spectrum after smoking, double blind crossover study; details: for level of LF/HF change: 3 soft capsules each containing 10 mg of sesamin, nine male university students
# Method: For nine male general university students, a test was carried out by a double blind, crossover study. Specifically, 3 soft capsules each containing 10 mg of sesamin and 3 placebo capsules were ingested, and the effect of the ingestion of the capsules on the activity of autonomic nerves was examined by a heart rate variability power spectrum method according to the method by Ue, H. et al. (Ue, H. et al., Ann. Noninvasive Electrocardiol., 5: 336-345 (2000)). After the ingestion of each sample, the students smoked one cigarette over a period of 4 min. Just before and after smoking, 10 min after smoking, and 30 min after smoking, electrocardiograms were taken, and sampling was carried out at 1024 Hz using 14-bit A/D conversion. Heart rate variability obtained from the electrocardiograms were processed by fast Fourier transform for frequency analysis to provide a heart rate variability power spectrum. In order to separate and quantify the heart rate variability spectrum, spectral integral values of two frequency bands (0.04 to 0.15 Hz and 0.15 to 0.4 Hz) are mainly determined. The spectral integral value of the low frequency (0.04 to 0.15 Hz) band was used as a measure of the activity of the sympathetic nerves and the activity of the parasympathetic nerves, while the spectral integral value of the high frequency (0.15 to 0.4 Hz) band was used as a measure of the activity of the parasympathetic nerves. Further, the value obtained by dividing the spectral integral value of the low frequency band by the spectral integral value of the high frequency band, that is, LF/HF, was used as a measure of the balance between the activity of the sympathetic nerves and the activity of the parasympathetic nerves (Akselrod S et al., Science 213: 220-222 (1981) and Moritani T et al., J sportmed Sci. 7: 31-39 (1993)). Further, the heart depolarization-repolarizaton time was measured by the QT interval.
smiles,measurement,setting,value
c1cc2c(cc1[C@H]1OC[C@H]3[C@@H]1CO[C@@H]3c1ccc3c(c1)OCO3)OCO2 [sesamin],overall autonomic nerve activity,[1],increased
same,parasympathetic nerve activity,[1],significantly increased
same,sympathetic nerve activity,[1],increased
same,prolongation of QT interval caused by smoking,QT interval,no significant prolongation
same,level of LF/HF change,[2]; 30 min after smoking,−0.239
same,level of LF/HF change,[2]; just after smoking,+2.87
same,lowering in the activity of the parasympathetic nerves caused by smoking,"[2]; vs placebo, p<0.05, FIG. 1, 3 x 10 mg sesamin capsules",significantly inhibited
